Experiment [1] concerns cartilage analogs (human nasal septal chondrocytes on microcarriers). The experiment in a line: Immunoperoxidase staining for proteoglycans in chondrocytes from cartilage analogs. Format: cell-based. The note with it: two days incubation; TGF-β1 10 ng/ml, Ibuprofen 140 μg/ml. The protocol: A preliminary experiment was conducted to analyze the effect of agents such as growth factors (TGF-β1) and non-steroidal anti-inflammatory drugs (NSAIDS; Ibuprofen). Human chondrocytes from donors undergoing nasal septal defect surgery were isolated by enzymatic digestion. The cells were seeded onto microcarriers at approximately 4×10^3 cells/cm^2, and incubated in spinner flasks at 60 rpm and at 37° C. and 5% CO2 until the cells reach confluency at about 14 days. At this point, the chondrocytes produce extracellular matrix-like products consisting of type II collagen, high-molecular-weight proteoglycans and aggrecan. The constructs also start to form microaggregates. These aggregates are referred to here as “cartilage analogs”.
Equivalent aliquots of these analogs were transferred to six 25-ml spinner flasks. Aliquots (5 ml) of control medium (no additive), or medium containing human platelet TGF-β1 (10 ng/ml; Sigma Chemical Co., St. Louis, Mo.) or Ibuprofen (140 μg/ml; Sigma) were added to duplicate flasks. TGF-β1 is a growth factor known to stimulate proteoglycan synthesis in chondrocyte cultures and cartilage explant cultures, while Ibuprofen is an anti-inflammatory drug known to inhibit proteoglycan synthesis. […] The cultures were incubated for two days. […]

The test system is the same in experiment [2]. In words: De novo proteoglycan synthesis by 35S-sulfate incorporation in cartilage analogs cultured in spinner flasks. The following applies: for sulfate incorporation, cell-associated (non-secreted) fraction, compared to controls: Ibuprofen 140 μg/ml; for de novo proteoglycan synthesis compared to the control (FIG. 8): subsequent study with PPS5, 35S label during last 24 hours of culture. Type of experiment: cell-based. The protocol:
A preliminary experiment was conducted to analyze the effect of agents such as growth factors (TGF-β1) and non-steroidal anti-inflammatory drugs (NSAIDS; Ibuprofen). Human chondrocytes from donors undergoing nasal septal defect surgery were isolated by enzymatic digestion. The cells were seeded onto microcarriers at approximately 4×10^3 cells/cm^2, and incubated in spinner flasks at 60 rpm and at 37° C. and 5% CO2 until the cells reach confluency at about 14 days. […] These aggregates are referred to here as “cartilage analogs”.
Equivalent aliquots of these analogs were transferred to six 25-ml spinner flasks. Aliquots (5 ml) of control medium (no additive), or medium containing human platelet TGF-β1 (10 ng/ml; Sigma Chemical Co., St. Louis, Mo.) or Ibuprofen (140 μg/ml; Sigma) were added to duplicate flasks. TGF-β1 is a growth factor known to stimulate proteoglycan synthesis in chondrocyte cultures and cartilage explant cultures, while Ibuprofen is an anti-inflammatory drug known to inhibit proteoglycan synthesis. […] The cultures were incubated for two days. 24 hours prior to terminating the cultures, 300 μCi of ^35S—Na2SO4 (NEN Life Science Products, Boston, Mass.) was added to each flask to measure incorporation into proteoglycans during the last 24 hours of culture.
Following termination of the cultures, cells were pelleted by centrifugation and proteoglycans were extracted from the supernatant medium and the cell fraction with 4 M guanidine HCl for 24 hours at 4° C. Guanidine HCl extracts were dialyzed extensively against deionized class I water using 6,000 Da cut-off dialysis tubing (The Spectrum Companies, Gardena, Calif.). Post-dialysis volumes were measured and triplicate 100 μl samples were counted in a LS-6500 Liquid Scintillation Counter (Beckman Instruments, Inc., Palo Alto, Calif.) using Cytoscint-ES Cocktail (ICN Research Products, Costa Mesa, Calif.). The total ^35SO4 incorporation was expressed as cpm per 10^6 cells. Another set of dialyzed samples were dried on a Speed-Vac (Savant, Inc., Farmingdale, N.Y.) and was then reconstituted in sample buffer consisting of 1% sodium dodecylsulfate, 30% sucrose and 0.025% brophenol blue. The samples were boiled for 5 min and then loaded on an 0.75% agarose gel in electrophoresis buffer. After electrophoresis, the gel was treated with Entensify (NEN Life Science Products), dried and autoradiographed at −70° C.

The mark [3] stands for this setting: preliminary experiment, two days, 35S label during last 24 hours, TGF-β1 10 ng/ml.

Turning to `CC(C)Cc1ccc(C(C)C(=O)O)cc1` (stereo not shown) [Ibuprofen, reference compound], in experiment [1], the “immunostaining for proteoglycans compared to control cells” value is “more faint immunostaining”. For the same molecule, the “sulfate incorporation, cell-associated (non-secreted) fraction, compared to controls” value in experiment [2] (setting [3]) is given as “decreased the cell-associated sulfate incorporation”. Also, the “de novo proteoglycan synthesis compared to the control (FIG. 8)” value in experiment [2] was “decreased proteoglycan synthesis”.

As for “TGF-β1: human platelet TGF-β1, a growth factor known to stimulate proteoglycan synthesis in chondrocyte cultures”, the “immunostaining for proteoglycans compared to control cells” value in experiment [1] is reported as “More intense immunostaining”. Also, in experiment [2] (setting [3]), the “sulfate incorporation, media-associated (secreted) fraction, compared to controls” value is recorded as “higher sulfate incorporation” and the “sulfate incorporation, cell-associated (non-secreted) fraction, compared to controls” value is recorded as “higher sulfate incorporation”. In experiment [2], the “de novo proteoglycan synthesis compared to the control (FIG. 8)” value is reported as “enhanced protoglycan synthesis”.

Source of the values: patent US20050147959A1, “Tissue analogs for in vitro testing and method of use therefor” (priority 2002, published 2005).
